Experimental data taken from patent publication US20030022158A1, “Peptides from the TT virus sequence and monospecific antibodies binding to the TT virus” (priority 1999, published 2003).

Key:
[1] = test system: Balb/c mice; assay: Immunization of Balb/c mice with TTV peptide 35, anti-peptide antibody titers; type: in vivo, mouse; settings: five Balb/c mice, 100 μg intra-peritoneally in complete Freund's adjuvant, booster week four
Protocol: A total of five Balb/c mice were immunized intra-peritoneally with 100 μg of TTV peptide 35 (SEQ ID NO: 1) emulsified 1:1 in complete Freund's adjuvant. Venous blood samples were obtained on weeks 2, 4, and 6. A booster dose of 100 μg in incomplete Freund's adjuvant was given on week four. […] The anti-peptide titers were 1:60 at week 4 and 1:2160 at week 6. […] The following section describes more on the production of antibodies specific for TTV.

[2] = test system: human IgG antibodies in human serum samples; assay: EIA of human antibody reactivities to overlapping synthetic peptides of TTV ORF1 and ORF2 (Tables 2 and 3); type: binding; settings: for reactivity with serum samples from patients with TTV infection: eight samples with TTV infection; for optical density (OD) at 405 nm: serum diluted 1:100, OD over 0.500 considered positive
Summary of the method: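 Human serum diluted 1:100 was tested for IgG binding to 18-residue overlapping TTV peptides coated at 10 μg/ml (pH 9.6 carbonate, 48 h). Blocking buffer held BSA, goat serum and Tween 20. Alkaline phosphatase anti-human IgG gave a signal measured as OD at 405 nm.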

[3] = test system: human antibodies in human serum samples P4, P6, P7; assay: EIA reactivities of serial dilutions of three human serum samples with TTV peptide SEQ ID NO: 1 (Table 5); type: binding
Protocol: The EIAs used to identify which peptides interacted with human sera followed protocols known in the art. (See Zhang et al., J Gen Virol, 78:2735-2746 (1997), herein expressly incorporated by reference in its entirety). Briefly, microplates (Nunc, Denmark) were coated for 48 hours with synthetic peptides at a concentration of 10 μg/ml in 0.05M sodium carbonate buffer pH 9.6. […] Bound human IgG was detected by incubation with anti-human IgG antibodies conjugated to alkaline phosphatase (Sigma Chemicals, St. Louis, Mo.). The plates were developed by the addition of […] (Sigma) and the optical densities were determined at 405 nm.

[4] = test system: human antibodies in human serum samples; assay: EIA reactivities of three human serum samples with deletion and alanine substitution analogues of SEQ ID NO: 1 (Table 6); type: binding; settings: positive = more than 50% of the reactivity of the original peptide
Summary of the method: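 Plates coated 48 hours with synthetic peptides at 10 μg/ml in carbonate buffer pH 9.6, blocked, then incubated with human sera diluted 1:100. Bound human IgG detected with alkaline phosphatase anti-human IgG; OD read at 405 nm, mapping deletion and alanine-substitution analogues of SEQ ID NO: 1.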

[5] = test system: anti-TTV antibodies present in human serum; assay: Inhibition of serum reactivity to plate-bound peptide by peptide in solution; type: binding; settings: peptide SEQ ID NO: 1 on the microplate

Sequence: TATTTTYAYPGTNRPPV (Peptide Immunogen) [peptide 35, overlapping synthetic peptide of TTV ORF1]
- mice developing detectable peptide-specific antibodies [1]: one developed detectable antibodies
- reactivity with serum samples from patients with TTV infection ([2]; EIA): reactive to most of the TTV infected serum samples
- reactivity with serum samples from patients with TTV infection ([2]; EIA, listed as TATTTTYAYPGTNRPPV): Every sample from patients with TTV infection was found to be reactive
- optical density (OD) at 405 nm ([2]; human serum sample 1, negative for TTV DNA by PCR): 0.18 OD
- optical density (OD) at 405 nm ([2]; human serum sample 2, negative for TTV DNA by PCR): 0.17 OD
- optical density (OD) at 405 nm ([2]; human serum sample 3, negative for TTV DNA by PCR): 0.27 OD
- optical density (OD) at 405 nm ([2]; human serum sample 4, negative for TTV DNA by PCR): 1.40 OD
- optical density (OD) at 405 nm ([2]; human serum sample 5, negative for TTV DNA by PCR): 0.25 OD
- optical density (OD) at 405 nm ([2]; human serum sample 6, negative for TTV DNA by PCR): 0.64 OD
- optical density (OD) at 405 nm ([2]; human serum sample 7, negative for TTV DNA by PCR): 2.10 OD
- optical density (OD) at 405 nm ([2]; human serum sample 9, positive for TTV DNA by PCR): 0.10 OD
- optical density (OD) at 405 nm ([2]; human serum sample 11, negative for TTV DNA by PCR): 0.64 OD
- optical density (OD) at 405 nm ([2]; human serum sample 18, positive for TTV DNA by PCR): 0.10 OD
- optical density (OD) at 405 nm ([2]; human serum sample 36, positive for TTV DNA by PCR): 1.22 OD
- optical density (OD) at 405 nm ([2]; human serum sample 48, positive for TTV DNA by PCR): 1.11 OD
- optical density (OD) at 405 nm ([2]; human serum sample 98, positive for TTV DNA by PCR): 0.05 OD
- optical density (OD) at 405 nm ([2]; human serum sample 110, positive for TTV DNA by PCR): 0.47 OD
- optical density (OD) at 405 nm ([2]; human serum sample 155, positive for TTV DNA by PCR): 0.95 OD
- optical density (OD) at 405 nm ([2]; human serum sample 157, positive for TTV DNA by PCR): 0.86 OD
- human reactivity to peptide (reactive peptides within ORF1) ([2]; tested human sera, EIA): Reactive
- OD at 405 nm ([3]; human serum sample P4, dilution of serum sample 1:100): 1.285 OD
- OD at 405 nm ([3]; human serum sample P4, dilution of serum sample 1:200): 0.758 OD
- OD at 405 nm ([3]; human serum sample P4, dilution of serum sample 1:400): 0.411 OD
- OD at 405 nm ([3]; human serum sample P4, dilution of serum sample 1:800): 0.234 OD
- OD at 405 nm ([3]; human serum sample P4, dilution of serum sample 1:1600): 0.131 OD
- OD at 405 nm ([3]; human serum sample P4, dilution of serum sample 1:3200): 0.076 OD
- OD at 405 nm ([3]; human serum sample P4, dilution of serum sample 1:6400): 0.058 OD
- OD at 405 nm ([3]; human serum sample P4, dilution of serum sample 1:12800): 0.046 OD
- OD at 405 nm ([3]; human serum sample P6, dilution of serum sample 1:100): 0.687 OD
- OD at 405 nm ([3]; human serum sample P6, dilution of serum sample 1:200): 0.375 OD
- OD at 405 nm ([3]; human serum sample P6, dilution of serum sample 1:400): 0.19 OD
- OD at 405 nm ([3]; human serum sample P6, dilution of serum sample 1:800): 0.104 OD
- OD at 405 nm ([3]; human serum sample P6, dilution of serum sample 1:1600): 0.067 OD
- OD at 405 nm ([3]; human serum sample P6, dilution of serum sample 1:3200): 0.049 OD
- OD at 405 nm ([3]; human serum sample P6, dilution of serum sample 1:6400): 0.043 OD
- OD at 405 nm ([3]; human serum sample P6, dilution of serum sample 1:12800): 0.041 OD
- OD at 405 nm ([3]; human serum sample P7, dilution of serum sample 1:100): 1.782 OD
- OD at 405 nm ([3]; human serum sample P7, dilution of serum sample 1:200): 1.23 OD
- OD at 405 nm ([3]; human serum sample P7, dilution of serum sample 1:400): 0.79 OD
- OD at 405 nm ([3]; human serum sample P7, dilution of serum sample 1:800): 0.45 OD
- OD at 405 nm ([3]; human serum sample P7, dilution of serum sample 1:1600): 0.246 OD
- OD at 405 nm ([3]; human serum sample P7, dilution of serum sample 1:3200): 0.131 OD
- OD at 405 nm ([3]; human serum sample P7, dilution of serum sample 1:6400): 0.087 OD
- OD at 405 nm ([3]; human serum sample P7, dilution of serum sample 1:12800): 0.061 OD
- dependence of reactivity on serum dilution ([3]; serial dilutions of serum samples): dependent on the dilution of the serum samples
- OD at 405 nm, reactivity of human serum sample P4 ([4]; human serum sample P4): 0.748 OD
- OD at 405 nm, reactivity of human serum sample P7 ([4]; human serum sample P7): 1.659 OD
- OD at 405 nm, reactivity of human serum sample P36 ([4]; human serum sample P36): 0.722 OD
- inhibition of serum reactivity to the peptide on the microplate by peptide in solution [5]: inhibited
